Laboratory results reported in US6943025B2, “Method for identifying genes involved in cell proliferation” (Children's Medical Center Corporation, priority 2001, dated 2005).

Columns and labels:
[1] = system: zebrafish embryos; details: literature reports; cited from earlier work
[2] = system: zebrafish mutant strains and wild-type; experiment: Carcinogenesis assay in mutant strains (carcinogen induced tumorigenesis, Table II); details: 21 day-old fry
[3] = system: Wild-type fish; details: zebrafish, in vivo
[4] = SQW 61, 5.0 ppm DMBA 24 hours, three months post-treatment
[5] = SQW 213, 5.0 ppm DMBA 24 hours, three months post-treatment
[6] = SQW 226, 5.0 ppm DMBA 24 hours, three months post-treatment
[7] = SQW 280, 5.0 ppm DMBA 24 hours, three months post-treatment
[8] = WT, 5.0 ppm DMBA 24 hours, 6 months post-treatment

Structure (SMILES): CC[C@@]1(O)C(=O)OCc2c1cc1n(c2=O)Cc2cc3ccccc3nc2-1 [Camptothecin]
- effect on zebrafish embryos (checkpoint, apoptosis) [1]: produces DNA strand breaks, resulting in subsequent apoptosis

Structure (SMILES): Cc1c2ccccc2c(C)c2c1ccc1ccccc12 [DMBA, 7,12 dimethylbenzanthracene]
- # tumors [2, 4]: 24
- % tumors [2, 4]: 18%
- # tumors [2, 5]: 2
- % tumors [2, 5]: 7%
- # tumors [2, 6]: 4
- % tumors [2, 6]: 20%
- # tumors [2, 7]: 6
- % tumors [2, 7]: 12%
- # tumors [2, 8]: 2
- % tumors [2, 8]: 5%
- fish that developed tumors ([3]; wild-type): 10.4%
- fish that developed tumors / fish treated ([3]; wild-type): 9/86
- tumor seen in tissue sections (histology) [3]: medulloblastoma
- tumor types produced [3]: more brain and liver tumors

Structure (SMILES): C[C@@]1(CO)[C@H](O)CC[C@@]2(C)[C@H]1CC[C@H]1C[C@@H]3C[C@@]12CC[C@]3(O)CO [aphidicolin]
- effect on zebrafish embryos (checkpoint, apoptosis) [1]: cause apoptosis

Structure (SMILES): NC(=O)NO [hydoxyurea]
- effect on zebrafish embryos (checkpoint, apoptosis) [1]: cause apoptosis

Structure (SMILES): COC(=O)Nc1nc2cc(C(=O)c3cccs3)ccc2[nH]1 [nocodozolc]
- effect on zebrafish embryos (checkpoint, apoptosis) [1]: destabilized microtubules and the activation of a mitotic checkpoint
